Data reported in patent US5843999A, “2-phenylazulene derivatives and a manufacturing method of these compounds” (Kotobuki Seiyaku Co., Ltd., priority 1996, dated 1998).

Legend:
COX-1 = COX-1 (Homo sapiens, UniProt P23219); experiment: Inhibitory activity on COX-1 (PGE2 production from arachidonic acid, PGE2 ELISA; Needleman method); format: biochemical; conditions: 1 mM arachidonic acid, 1 μM hematin, pH 8.0, 37° C., 10 min
Experimental: (§1) Pharmacological experiment are as follows. Inhibitory activity of compounds on COX-1 and COX-2 were assayed according to the method of Needleman (J. Biol. Chem., 254, 9772, 1979). One unit of COX-1 or COX-2 enzyme, suspended with Tris-HCl buffer (pH 8.0, 500 μl) containing 1 μM hematin as co-factor, was incubated with compound and 1 mM arachidonic acid at 37° C. for 10 min. The reaction was stopped with 50 mM indomethacin (50 μl), and amounts of PGE2 in the reaction mixture was assayed using PGE2 ELISA system.

COX-2 = molecular target: T1, COX-2 (Homo sapiens, UniProt P35354); experiment: Inhibitory activity on COX-2 (PGE2 production from arachidonic acid, PGE2 ELISA; Needleman method); format: biochemical; conditions: 1 mM arachidonic acid, 1 μM hematin, pH 8.0, 37° C., 10 min
T1 sequence (P35354 18-604): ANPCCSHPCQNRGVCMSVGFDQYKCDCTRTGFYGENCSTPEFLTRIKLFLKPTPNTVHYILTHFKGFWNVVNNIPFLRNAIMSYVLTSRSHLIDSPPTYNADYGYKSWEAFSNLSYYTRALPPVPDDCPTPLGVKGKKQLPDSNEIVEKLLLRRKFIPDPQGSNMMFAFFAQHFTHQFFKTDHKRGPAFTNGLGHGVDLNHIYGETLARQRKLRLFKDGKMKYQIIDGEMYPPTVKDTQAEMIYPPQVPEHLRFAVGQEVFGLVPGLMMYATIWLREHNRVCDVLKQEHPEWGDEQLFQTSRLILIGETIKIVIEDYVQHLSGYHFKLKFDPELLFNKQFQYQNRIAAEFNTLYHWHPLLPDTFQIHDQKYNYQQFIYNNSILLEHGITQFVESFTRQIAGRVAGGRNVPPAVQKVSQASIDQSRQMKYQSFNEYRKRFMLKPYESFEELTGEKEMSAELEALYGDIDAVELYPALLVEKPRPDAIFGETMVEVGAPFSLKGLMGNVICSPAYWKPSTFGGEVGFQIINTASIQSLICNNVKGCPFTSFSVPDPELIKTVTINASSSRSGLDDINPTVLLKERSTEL
Experimental: as §1

Chain of COX-1 (P23219 24-599): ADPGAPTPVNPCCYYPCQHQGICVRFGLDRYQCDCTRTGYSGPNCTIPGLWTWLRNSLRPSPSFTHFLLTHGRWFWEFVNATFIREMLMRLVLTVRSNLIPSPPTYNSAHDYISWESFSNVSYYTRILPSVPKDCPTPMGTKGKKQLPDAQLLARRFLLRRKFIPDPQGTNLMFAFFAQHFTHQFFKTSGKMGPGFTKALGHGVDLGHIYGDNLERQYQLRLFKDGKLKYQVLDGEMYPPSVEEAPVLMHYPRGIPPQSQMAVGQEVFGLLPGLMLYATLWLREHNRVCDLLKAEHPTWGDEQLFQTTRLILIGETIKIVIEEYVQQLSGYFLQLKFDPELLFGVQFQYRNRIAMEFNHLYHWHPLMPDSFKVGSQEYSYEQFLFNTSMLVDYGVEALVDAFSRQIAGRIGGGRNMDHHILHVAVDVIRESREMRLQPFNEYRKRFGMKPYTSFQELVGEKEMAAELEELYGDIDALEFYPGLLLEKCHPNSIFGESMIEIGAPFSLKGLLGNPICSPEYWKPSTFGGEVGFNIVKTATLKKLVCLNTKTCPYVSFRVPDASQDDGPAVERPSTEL

## CS(=O)(=O)c1ccc(-c2cc3cccccc-3c2-c2ccccc2)cc1 [Compound 1, 2-(4-Methylsulfonylphenyl)-1-phenylazulene]
COX-1
  IC50: > 10000 nM
COX-2
  IC50: 760 nM

## CS(=O)(=O)c1ccc(-c2cc3cccccc-3c2-c2ccccc2Cl)cc1 [Compound 2, 1-(2-Chlorophenyl)-2-(4-methylsulfonylphenyl)azulene]
COX-1
  IC50: > 10000 nM
COX-2
  IC50: 6900 nM

## CS(=O)(=O)c1ccc(-c2cc3cccccc-3c2-c2cccc(Cl)c2)cc1 [Compound 3, 1-(3-Chlorophenyl)-2-(4-methylsulfonylphenyl)azulene]
COX-1
  IC50: > 10000 nM
COX-2
  IC50: 9.3 nM

## CS(=O)(=O)c1ccc(-c2cc3cccccc-3c2-c2ccc(Cl)cc2)cc1 [Compound 4, 1-(4-Chlorophenyl)-2-(4-methylsulfonylphenyl)azulene]
COX-1
  IC50: > 10000 nM
COX-2
  IC50: 30 nM

## CS(=O)(=O)c1ccc(-c2cc3cccccc-3c2-c2cccc(F)c2)cc1 [Compound 5, 1-(3-Fluorophenyl)-2-(4-methylsulfonylphenyl)azulene]
COX-1
  IC50: > 10000 nM
COX-2
  IC50: > 10000 nM

## CS(=O)(=O)c1ccc(-c2cc3cccccc-3c2-c2ccc(F)cc2)cc1 [Compound 6, 1-(4-Fluorophenyl)-2-(4-methylsulfonylphenyl)azulene]
COX-1
  IC50: > 10000 nM
COX-2
  IC50: 1200 nM

## Cc1cccc(-c2c3cccccc-3cc2-c2ccc(S(C)(=O)=O)cc2)c1 [Compound 7, 1-(3-Methylphenyl)-2-(4-methylsulfonylphenyl)azulene]
COX-1
  IC50: > 10000 nM
COX-2
  IC50: 48 nM

## Cc1ccc(-c2c3cccccc-3cc2-c2ccc(S(C)(=O)=O)cc2)cc1 [Compound 8, 1-(4-Methylphenyl)-2-(4-methylsulfonylphenyl)azulene]
COX-1
  IC50: > 10000 nM
COX-2
  IC50: 7400 nM

## COc1cccc(-c2c3cccccc-3cc2-c2ccc(S(C)(=O)=O)cc2)c1 [Compound 9, 1-(3-Methoxyphenyl)-2-(4-methylsulfonylphenyl)azulene]
COX-1
  IC50: > 10000 nM
COX-2
  IC50: 4800 nM

## COc1ccc(-c2c3cccccc-3cc2-c2ccc(S(C)(=O)=O)cc2)cc1 [Compound 10, 1-(4-Methoxyphenyl)-2-(4-methylsulfonylphenyl)azulene]
COX-1
  IC50: > 10000 nM
COX-2
  IC50: 3700 nM

## CS(=O)(=O)c1ccc(-c2cc3cccccc-3c2-c2ccc(F)c(Cl)c2)cc1 [Compound 11, 1-(3-Chloro-4-fluorophenyl)-2-(4-methylsulfonylphenyl)azulene]
COX-1
  IC50: > 10000 nM
COX-2
  IC50: 83 nM

## Cc1ccc(-c2c3cccccc-3cc2-c2ccc(S(C)(=O)=O)cc2)cc1Cl [Compound 12, 1-(3-Chloro-4-methylphenyl)-2-(4-methylsulfonylphenyl)azulene]
COX-1
  IC50: > 10000 nM
COX-2
  IC50: 4.9 nM

## COc1ccc(-c2c3cccccc-3cc2-c2ccc(S(C)(=O)=O)cc2)cc1Cl [Compound 13, 1-(3-Chloro4-methoxyphenyl)-2-(4-methylsulfonylphenyl)azulene]
COX-1
  IC50: > 10000 nM
COX-2
  IC50: 19 nM

## COc1ccc(-c2c3cccccc-3cc2-c2ccc(S(C)(=O)=O)cc2)cc1F [Compound 14, 1-(3-Fluoro-4-methoxyphenyl)-2-(4-methylsulfonylphenyl)azulene]
COX-1
  IC50: > 10000 nM
COX-2
  IC50: 8.4 nM

## CS(=O)(=O)c1ccc(-c2c(F)c3cccccc-3c2-c2ccccc2)cc1 [Compound 21, 1-Fluoro-2-(4-methylsulfonylphenyl)-3-phenylazulene]
COX-1
  IC50: > 10000 nM
COX-2
  IC50: 7900 nM

## NS(=O)(=O)c1ccc(-c2cc3cccccc-3c2-c2ccccc2)cc1 [Compound 27, 4-(1-Phenylazulene-2-yl)phenylsulfonamide]
COX-1
  IC50: > 10000 nM
COX-2
  IC50: 8.6 nM

## NS(=O)(=O)c1ccc(-c2cc3cccccc-3c2-c2cccc(Cl)c2)cc1 [Compound 28, 4-[1-(3-Chlorophenyl)azulene-2-yl]phenylsulfonamide]
COX-1
  IC50: 7600 nM
COX-2
  IC50: 2600 nM

## NS(=O)(=O)c1ccc(-c2cc3cccccc-3c2-c2cccc(F)c2)cc1 [Compound 29, 4-[1-(3-Fluorophenyl)azulene-2-yl]phenylsulfonamide]
COX-1
  IC50: 4700 nM
COX-2
  IC50: 770 nM

## Cc1cccc(-c2c3cccccc-3cc2-c2ccc(S(N)(=O)=O)cc2)c1 [Compound 30, 4-[1-(3-Methylphenyl)azulene-2-yl]phenylsulfonamide]
COX-1
  IC50: 4300 nM
COX-2
  IC50: 500 nM

## COc1cccc(-c2c3cccccc-3cc2-c2ccc(S(N)(=O)=O)cc2)c1 [Compound 31, 4-[1-(3-Methoxyphenyl)azulene-2-yl]phenylsulfonamide]
COX-1
  IC50: > 10000 nM
COX-2
  IC50: 2500 nM

## NS(=O)(=O)c1ccc(-c2cc3cccccc-3c2-c2ccc(F)c(Cl)c2)cc1 [Compound 32, 4-[1-(3-Chloro-4-fluorophenyl)azulene-2-yl]phenylsulfonamide]
COX-1
  IC50: > 10000 nM
COX-2
  IC50: 12 nM

## Cc1ccc(-c2c3cccccc-3cc2-c2ccc(S(N)(=O)=O)cc2)cc1Cl [Compound 33, 4-[1-(3-Chloro4-methylphenyl)azulene-2-yl]phenylsulfonamide]
COX-1
  IC50: 4100 nM
COX-2
  IC50: 2.6 nM

## COc1ccc(-c2c3cccccc-3cc2-c2ccc(S(N)(=O)=O)cc2)cc1Cl [Compound 34, 4-[1-(3-Chloro4-methoxyphenyl)azulene-2-yl]phenylsulfonamide]
COX-1
  IC50: 960 nM
COX-2
  IC50: 3.4 nM

## COc1ccc(-c2c3cccccc-3cc2-c2ccc(S(N)(=O)=O)cc2)cc1F [Compound 35, 4-[l-(3-Fluoro-4-methoxyphenyl)azulene-2-yl]phenylsulfonamide]
COX-1
  IC50: 6700 nM
COX-2
  IC50: 22 nM

## COc1ccc(-c2c3cccccc-3cc2-c2ccc(S(C)(=O)=O)cc2)cc1OC [Compound 38, 1-(3,4-Dimethoxyphenyl)-2-(4-methylsulfonylphenyl)azulene]
COX-1
  IC50: > 10000 nM
COX-2
  IC50: 64 nM

## COc1ccc(-c2c3cccccc-3cc2-c2ccc(S(N)(=O)=O)cc2)cc1OC [Compound 39, 4-[1-(3,4-Dimethoxyphenyl)azulene-2-yl]phenylsulfonamide]
COX-1
  IC50: > 10000 nM
COX-2
  IC50: 290 nM
